Experimental data: ChEMBL document CHEMBL1201862, “PubChem BioAssay data set” (2004)
Active and inactive are the calls of the source.

How the values were obtained:
[1] = molecular target: T1, Replicative DNA helicase DnaB (Mycobacterium tuberculosis, UniProt P9WMR3); assay: DnaB intein splicing inhibitors, dose response, biochemical, cell-free fluorescence (AID 449749); assay type: functional
T1 sequence (P9WMR3 whole entry): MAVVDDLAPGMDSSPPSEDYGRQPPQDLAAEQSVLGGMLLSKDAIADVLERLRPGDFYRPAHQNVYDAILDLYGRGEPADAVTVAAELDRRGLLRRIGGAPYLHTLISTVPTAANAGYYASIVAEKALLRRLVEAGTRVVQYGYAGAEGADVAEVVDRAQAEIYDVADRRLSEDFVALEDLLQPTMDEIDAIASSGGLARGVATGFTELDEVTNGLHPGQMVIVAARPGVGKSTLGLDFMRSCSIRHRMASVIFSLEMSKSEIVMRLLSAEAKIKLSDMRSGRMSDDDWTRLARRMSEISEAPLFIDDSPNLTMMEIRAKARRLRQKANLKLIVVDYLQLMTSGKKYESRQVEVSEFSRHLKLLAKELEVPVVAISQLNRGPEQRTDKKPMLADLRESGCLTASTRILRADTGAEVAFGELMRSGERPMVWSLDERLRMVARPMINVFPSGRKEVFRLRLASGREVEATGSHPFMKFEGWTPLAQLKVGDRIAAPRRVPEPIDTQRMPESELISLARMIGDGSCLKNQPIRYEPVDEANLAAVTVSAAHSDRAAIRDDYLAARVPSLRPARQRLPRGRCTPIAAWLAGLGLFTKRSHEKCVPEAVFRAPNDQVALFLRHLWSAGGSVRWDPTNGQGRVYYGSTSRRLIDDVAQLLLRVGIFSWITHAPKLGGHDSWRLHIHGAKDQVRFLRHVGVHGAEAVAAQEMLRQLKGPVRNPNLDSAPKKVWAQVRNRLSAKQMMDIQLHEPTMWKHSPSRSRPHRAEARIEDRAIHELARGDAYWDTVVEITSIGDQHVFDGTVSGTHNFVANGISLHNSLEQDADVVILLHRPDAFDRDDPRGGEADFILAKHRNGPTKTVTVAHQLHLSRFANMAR

Protein RecA = molecular target: T2, Protein RecA (Mycobacterium tuberculosis, UniProt P9WHJ3); assay: Fluorescence Cell-Free Homogeneous Dose Retest to Identify Inhibitors of RecA-Intein Splicing Activity. [Related pubchem assays (depositor defined):AID2097, AID2223, AID489010, AID492950]; assay type: functional
T2 sequence (P9WHJ3 whole entry): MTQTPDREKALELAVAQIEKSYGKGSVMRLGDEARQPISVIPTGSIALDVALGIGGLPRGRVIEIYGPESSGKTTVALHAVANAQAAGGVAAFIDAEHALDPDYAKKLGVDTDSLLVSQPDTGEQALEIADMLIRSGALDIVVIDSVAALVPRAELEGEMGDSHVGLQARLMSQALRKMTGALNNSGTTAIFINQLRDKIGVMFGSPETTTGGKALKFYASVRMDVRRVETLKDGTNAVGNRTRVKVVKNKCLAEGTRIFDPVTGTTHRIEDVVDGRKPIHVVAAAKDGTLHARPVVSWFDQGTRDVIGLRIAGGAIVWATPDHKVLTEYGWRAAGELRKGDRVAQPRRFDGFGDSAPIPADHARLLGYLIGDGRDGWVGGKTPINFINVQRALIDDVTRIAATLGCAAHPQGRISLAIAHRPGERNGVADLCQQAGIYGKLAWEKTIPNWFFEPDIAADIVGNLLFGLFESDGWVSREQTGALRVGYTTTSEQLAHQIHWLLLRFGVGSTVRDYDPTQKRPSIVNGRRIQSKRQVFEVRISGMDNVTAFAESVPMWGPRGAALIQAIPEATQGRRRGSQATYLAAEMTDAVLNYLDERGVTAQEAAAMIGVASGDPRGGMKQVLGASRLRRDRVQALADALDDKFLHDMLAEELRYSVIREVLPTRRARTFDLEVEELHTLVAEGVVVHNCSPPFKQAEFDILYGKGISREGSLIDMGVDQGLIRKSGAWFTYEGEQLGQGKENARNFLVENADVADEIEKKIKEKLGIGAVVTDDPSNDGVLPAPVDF

Cytochrome P450 2C19 = Cytochrome P450 2C19 (Homo sapiens, UniProt P33261); assay: Cytochrome panel assay with activity outcomes. Panel member name: p450-cyp2c19 Compounds with AC50 equal or less than 10 uM are considered active; assay type: functional; settings: read-out: AC50
Chain of Cytochrome P450 2C19 (P33261 whole entry): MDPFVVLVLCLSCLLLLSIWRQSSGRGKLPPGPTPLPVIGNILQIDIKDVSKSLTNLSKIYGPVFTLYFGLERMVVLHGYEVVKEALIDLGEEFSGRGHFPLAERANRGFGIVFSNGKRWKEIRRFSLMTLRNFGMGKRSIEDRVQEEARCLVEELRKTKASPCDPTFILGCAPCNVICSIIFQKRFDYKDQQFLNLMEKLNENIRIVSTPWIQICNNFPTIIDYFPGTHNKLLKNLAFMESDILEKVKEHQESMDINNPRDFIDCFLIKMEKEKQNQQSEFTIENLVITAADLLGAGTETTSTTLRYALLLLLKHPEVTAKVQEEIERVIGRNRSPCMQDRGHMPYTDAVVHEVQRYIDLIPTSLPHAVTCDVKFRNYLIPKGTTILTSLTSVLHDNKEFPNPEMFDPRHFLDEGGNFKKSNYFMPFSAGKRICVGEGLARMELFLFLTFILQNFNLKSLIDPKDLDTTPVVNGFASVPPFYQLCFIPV

Cytochrome P450 1A2 = molecular target: T3, Cytochrome P450 1A2 (Homo sapiens, UniProt P05177);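 further: PubChem cytochrome P450 panel assay, CYP1A2 panel member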
T3 sequence (P05177 whole entry): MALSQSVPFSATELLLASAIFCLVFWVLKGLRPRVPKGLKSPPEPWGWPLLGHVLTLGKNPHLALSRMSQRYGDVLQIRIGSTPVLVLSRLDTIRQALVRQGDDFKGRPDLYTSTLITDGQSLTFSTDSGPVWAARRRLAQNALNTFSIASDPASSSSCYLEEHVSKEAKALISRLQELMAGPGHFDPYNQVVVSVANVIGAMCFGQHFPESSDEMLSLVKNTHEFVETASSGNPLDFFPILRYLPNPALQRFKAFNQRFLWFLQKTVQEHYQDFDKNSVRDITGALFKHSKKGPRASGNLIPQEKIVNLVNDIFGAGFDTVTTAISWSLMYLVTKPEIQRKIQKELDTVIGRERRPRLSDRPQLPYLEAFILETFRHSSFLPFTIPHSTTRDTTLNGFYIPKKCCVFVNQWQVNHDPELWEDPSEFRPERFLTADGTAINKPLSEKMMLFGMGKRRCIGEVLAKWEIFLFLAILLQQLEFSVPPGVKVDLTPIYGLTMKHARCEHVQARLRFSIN

Cytochrome P450 3A4 = Cytochrome P450 3A4 (Homo sapiens, UniProt P08684);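 further: CYP3A4 tested as one member of a cytochrome P450 panel screen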
Chain of Cytochrome P450 3A4 (P08684 whole entry): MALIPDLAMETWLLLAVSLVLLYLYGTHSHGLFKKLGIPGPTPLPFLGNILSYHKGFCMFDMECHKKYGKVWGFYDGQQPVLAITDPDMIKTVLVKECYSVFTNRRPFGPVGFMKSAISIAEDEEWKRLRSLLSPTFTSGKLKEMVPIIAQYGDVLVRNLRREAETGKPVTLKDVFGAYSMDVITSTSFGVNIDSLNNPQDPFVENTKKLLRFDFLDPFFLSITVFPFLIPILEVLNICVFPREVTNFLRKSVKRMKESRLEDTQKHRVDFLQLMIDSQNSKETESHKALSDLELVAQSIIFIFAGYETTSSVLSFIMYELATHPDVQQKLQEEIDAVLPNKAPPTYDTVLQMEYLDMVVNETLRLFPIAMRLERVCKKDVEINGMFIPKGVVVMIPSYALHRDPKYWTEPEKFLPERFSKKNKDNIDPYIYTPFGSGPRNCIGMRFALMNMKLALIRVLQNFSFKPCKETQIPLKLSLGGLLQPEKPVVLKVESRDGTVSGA

Cytochrome P450 2C9 = Cytochrome P450 2C9 (Homo sapiens, UniProt P11712)
Chain of Cytochrome P450 2C9 (P11712 whole entry): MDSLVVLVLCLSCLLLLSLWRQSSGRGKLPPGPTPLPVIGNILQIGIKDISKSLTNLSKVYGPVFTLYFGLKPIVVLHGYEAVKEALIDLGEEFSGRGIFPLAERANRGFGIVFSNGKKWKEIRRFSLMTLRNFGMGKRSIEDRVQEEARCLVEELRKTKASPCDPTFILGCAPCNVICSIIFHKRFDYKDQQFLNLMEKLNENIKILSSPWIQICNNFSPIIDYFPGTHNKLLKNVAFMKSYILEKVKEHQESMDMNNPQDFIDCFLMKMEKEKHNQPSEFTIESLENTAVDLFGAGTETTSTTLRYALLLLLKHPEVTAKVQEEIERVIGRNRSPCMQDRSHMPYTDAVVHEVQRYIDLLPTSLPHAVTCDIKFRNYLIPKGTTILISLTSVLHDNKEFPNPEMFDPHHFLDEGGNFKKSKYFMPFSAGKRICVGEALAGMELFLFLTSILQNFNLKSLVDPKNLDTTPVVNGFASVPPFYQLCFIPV

Streptococcus = assay: Group A Streptococcus viability loss, dose response, counter-screen for streptokinase expression inhibitor project, luminescence, BacTiterGlo (AID 1915); assay type: functional, organism-based;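 further: potency for reduction of bacterial viability or growth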
[2] = system: Streptococcus sp. 'group A'; assay: growth inhibition of control SK(-) GAS strain, dose response, counter-screen for streptokinase expression inhibitor project, luminescence, kanamycin, BacTiterGlo, confirmation (AID 1900); assay type: functional, organism-based
INS1 = assay: beta cell apoptosis inhibitors, cytokine rescue, dose response, luminescence, retest (AID 449756); assay type: functional, cell-based; settings: Rattus norvegicus;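 further: cell death triggered by IL-1 beta plus TNF-alpha plus IFN-gamma mixture; protective hits raise ATP signal compared with cytokine alone wells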
[3] = Luminescence Cell-Based Dose Retest to Confirm Inhibitors of Cancer Stem Cells. [Related pubchem assays (depositor defined):AID2717, AID2721]; assay type: functional; settings: Homo sapiens
[4] = molecular target: T4, Corticotropin-releasing factor receptor 2/Corticotropin-releasing factor-binding protein (Homo sapiens, UniProt P24387+Q13324); assay: activators of CRF receptor 2 with binding protein – uHTS hits, confirmation (AID 602473); assay type: functional; settings: read-out: EC50_Mean
T4 sequence (Q13324 whole entry): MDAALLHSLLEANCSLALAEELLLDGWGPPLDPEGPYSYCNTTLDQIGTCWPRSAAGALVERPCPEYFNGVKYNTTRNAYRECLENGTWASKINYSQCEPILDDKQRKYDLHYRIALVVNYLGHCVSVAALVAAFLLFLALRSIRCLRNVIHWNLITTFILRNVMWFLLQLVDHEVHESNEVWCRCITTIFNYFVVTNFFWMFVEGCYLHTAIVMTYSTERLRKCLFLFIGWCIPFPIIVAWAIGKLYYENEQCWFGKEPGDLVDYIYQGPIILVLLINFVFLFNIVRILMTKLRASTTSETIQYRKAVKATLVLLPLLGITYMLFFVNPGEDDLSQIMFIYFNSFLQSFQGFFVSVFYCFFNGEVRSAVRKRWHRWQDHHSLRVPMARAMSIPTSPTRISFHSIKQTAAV
T4 sequence (P24387 whole entry): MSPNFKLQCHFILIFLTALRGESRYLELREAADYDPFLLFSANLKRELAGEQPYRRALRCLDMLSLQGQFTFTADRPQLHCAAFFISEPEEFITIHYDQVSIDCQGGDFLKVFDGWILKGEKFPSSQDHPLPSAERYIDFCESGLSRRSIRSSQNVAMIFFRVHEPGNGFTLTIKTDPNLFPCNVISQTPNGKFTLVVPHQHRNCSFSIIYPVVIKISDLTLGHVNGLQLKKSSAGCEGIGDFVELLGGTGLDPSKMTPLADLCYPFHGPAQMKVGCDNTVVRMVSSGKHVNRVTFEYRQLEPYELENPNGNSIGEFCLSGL

[5] = cytotoxicity toward NIH3T3 fibroblasts, dose response, counter-screen, cell-based, ATP luminescence, mouse fibroblasts (AID 2010); assay type: functional;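 further: cells exposed to compound for about 90 hours before reading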
[6] = inhibitors of intracellular T. cruzi replication, confirmation, NIH3T3 host cells, beta-gal luminescence (AID 2044); assay type: functional, cell-based;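 further: intracellular parasites grown in NIH/3T3 mouse fibroblasts as host cells; luminescent beta-galactosidase reporter signal from transgenic T. cruzi replicating inside host cells; inhibitors lower the luminescence signal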

Row | SMILES | AC50 [1] | EC50 (Protein RecA) | AC50 (INS1) | also measured
1 | CC(C)c1n[nH]c2c1C(c1ccc(OC(=O)c3ccco3)cc1)C(C#N)=C(N)O2 (stereo unspecified) | 6.85 µM (active) | 3.02 µM (active) | – | –
2 | C[C@@]12CC[C@H]3[C@@H](CC[C@@H]4C[C@H](O)CC[C@]43C)[C@H]1CC[C@H]2O | – | – | – | AC50 (Cytochrome P450 2C19): 31.6 µM (inconclusive); AC50 (Cytochrome P450 1A2): 15.8 µM (inconclusive); AC50 (Cytochrome P450 3A4): 10 µM (inconclusive); AC50 (Cytochrome P450 2C9): 25.1 µM (inconclusive)
3 | Cc1c(C)n(O)c2ccc3nonc3c12 | > 380 µM (inactive) | 3.67 µM (active) | – | –
4 | COC(=O)c1cccc(NC(S)=NCc2ccc(Cl)cc2)c1 | – | – | – | EC50 (Streptococcus): 15.8 µM (active); EC50 [2]: 13 µM (active)
5 | CC1=NNC(=O)C1Cc1ccccc1C (stereo unspecified) | 0.538 µM (active) | 0.329 µM (active) | – | –
6 | NNc1ncnc2scc(-c3ccc(Cl)cc3)c12 | – | – | 6.34 µM (active) | –
7 | Cc1nnc(SCC2=C(C(=O)O)N3C(=O)C(NC(=O)Cn4nc(C)c(Cl)c4C)C3SC2)s1 (stereo unspecified) | – | – | – | EC50 (Streptococcus): 0.115 µM (active); EC50 [2]: < 0.06 µM (active)
8 | O=C(C[n+]1ccccc1)NNc1ccccc1 | – | – | – | AC50 [3]: 1.47 µM (active)
9 | Cc1ccccc1NS(=O)(=O)c1cc2c(cc1C)NC(=O)CO2 | – | – | – | EC50 [4]: > 53 µM (inactive)
10 | C=C(C)C(=O)NC1=NN(c2ccccc2)C(=O)C1 | 3.66 µM (active) | 37 µM (active) | – | –
11 | c1ccc(CCNCc2cccs2)cc1 | > 380 µM (inactive) | > 380 µM (inactive) | – | –
12 | CCOC(=O)c1ccc(Nc2cc(C)nc(-c3ccccc3)n2)cc1 | – | – | – | AC50 [3]: 2.1 µM (active)
13 | Clc1ccc(C2=C3CCCCn4c(-c5ccccc5)c[n+](c43)C2)cc1 | > 380 µM (inactive) | 50 µM (active) | – | AC50 (Cytochrome P450 2C19): 1.12 µM (inconclusive); AC50 (Cytochrome P450 1A2): 12.6 µM (inconclusive)
14 | COc1ccc(OC)c(-c2cc(-c3cccnc3)nc(N)c2C#N)c1 | – | – | – | AC50 [3]: 0.766 µM (active)
15 | CC1(C)C(C=C(Cl)Cl)C1C(=O)Nc1ccc([N+](=O)[O-])cc1 (stereo unspecified) | – | – | 7.67 µM (active) | –
16 | Cn1c(-c2ccccc2)cc2c3no[n+]([O-])c3ccc21 | – | – | 2.09 µM (active) | EC50 [5]: 8.01 µM (active); EC50 [6]: 0.707 µM (active)
17 | CC(=O)Nc1ccc(C2=CC(=O)C[C@H](c3ccc4c(c3)OCO4)C2)cc1 | – | – | > 260 µM (inactive) | –
18 | COc1ccc(/C=C/C(=O)c2ccncc2)c2ccccc12 | > 120 µM (inactive) | 8.84 µM (active) | 26.7 µM (active) | AC50 [3]: 11.8 µM (active)
19 | COCC1C2CC[C@H]3C(OCc4ccc(F)cc4C(F)(F)F)OC[C@]4(C)[C@H]3C2=C(CN4C(=O)OC(C)(C)C)[C@H](C)C1COC (stereo partly specified) | – | – | – | AC50 (Cytochrome P450 2C19): 39.8 µM (inconclusive); AC50 (Cytochrome P450 1A2): 31.6 µM (inconclusive); AC50 (Cytochrome P450 2C9): 20 µM (inconclusive)
20 | O=C(NCC(c1cccs1)N1CCOCC1)c1ccc(Cl)s1 (stereo unspecified) | – | – | – | AC50 [3]: 2.89 µM (active)
21 | CCc1c(C)sc(NC(=O)/C=C/c2ccc3c(c2)OCO3)c1C(=O)OC | – | – | – | AC50 [3]: 0.768 µM (active)
22 | Cc1ccc(C(c2c(C)n[nH]c2O)c2c(C)n[nH]c2O)cc1 | 0.36 µM (active) | 0.248 µM (active) | – | –
23 | CCOCCCNC(=O)c1cnc2cc(OC)ccc2c1O | – | – | > 260 µM (inactive) | –
24 | COc1ccc(-c2nn(-c3ccccc3)cc2/C=N/Nc2ccc3ccccc3n2)cc1OC | – | – | 1.5 µM (active) | –
25 | CCc1ccc(-n2c(C)cc(/C=N/NC(=O)c3ccncc3)c2C)cc1 | – | – | 14.9 µM (active) | –
26 | Cc1ccc(/N=C2\C(Cl)=C(O)OC2OC(=O)c2ccco2)cc1C (stereo unspecified) | 11.5 µM (active) | 8.65 µM (active) | – | –
27 | Cc1ccc(Sc2oc(/C=N/n3cnnc3)cc2Br)cc1 | 4.42 µM (active) | 9.82 µM (active) | – | –
28 | COc1cc([N+](=O)[O-])ccc1NC(=O)CC1S/C(=N\c2ccc(F)cc2)N(CCC2=CCCCC2)C1=O (stereo unspecified) | – | – | 4.29 µM (active) | –
